Measurements: US6140051A, “Fluorescent dibenzazole derivatives and methods related thereto” (priority 1998, dated 2000)
Structures can show the parent of a compound that is named as a salt. Where two headings read alike, the source gives them in different places. Blank lines part the entries; values can stand above or below the compound they belong to. {BBTE} = label added with the BBTE phosphoramidite

Key:
[1] = background, known fluorophores; cited from earlier work
[2] = pH dependence of fluorescence; format: physicochemical
Description: To make the phenolic fluorophore fully fluorescent at a lower pH (7-8) to achieve the best performance for some enzymatic and biological assays, some fluorophores are synthesized with electronegative substituent(s), e.g., chloride, bromide, iodide, fluoride, trifluoromethyl, --SO3 H, etc. These substituted derivatives may be analyzed at different pH's for their fluorescent efficiency. The dependence of fluorescent intensity on pH for some preferred compounds of the invention, and comparative compounds, are shown in FIG. 3. Compared to the unsubstituted compound, BBT (also shown in the graph, U.S. Pat. No. 5,424,440), the electronegatively substituted BBT derivatives, especially CIBBT, can reach their maximum fluorescence at a pH very close to physiological conditions (pH 7-8). The pH dependent characteristic change of fluorescent intensity of these fluorophores can also find applications as pH titration fluorescent indicators.

[3] = phenolic hydroxyl; cited from earlier work
[4] = cited from earlier work
[5] = Fluorescence properties measured at pH about 10 in AttoPhos buffer; format: physicochemical
Procedure: * The fluorescence is measured at pH about 10 in AttoPhos buffer (JBL
Scientific, San Luis Obispo, CA).
In the following examples, NMR data were measured by a Bruker AC-300 300 MHz instrument; mass spectra were obtained on a VG Platform, Fisons Instruments; fluorescence data were obtained from a Perkin Elmer Luminescence Spectrometer, Model LS50B.

[6] = target: T1, β-galactosidase (Escherichia coli, UniProt P00722); experiment: Enzymatic activity test, β-galactosidase; format: biochemical, E. Coli; settings: 1 mg in 10 ml 0.1 M potassium phosphate buffer pH 7, 10 mM DTT, 1 mM MgCl2
T1 construct: purchased ICN Biomedicals, Inc. 104939; host or cells: E. Coli
Procedure: (2) β-Galactosidase: 1 mg BEBTESG was dissolved in 10 ml 0.1 M potassium phosphate buffer (pH 7) containing 10 mM DTT and 1 mM MgCl2 and a small quantity of β-galactosidase (Cat. No. 104939, E. Coli, ICN Biomedicals, Inc.) was added.

[7] = target: T2, alkaline phosphatase (Calf Intestine) (Bos taurus, UniProt P19111); experiment: Enzymatic activity test, alkaline phosphatase; format: biochemical; settings: 1 mg in 10 ml AttoPhos buffer
T2 construct: purchased Calzyme, San Luis Obispo, Calif; host or cells: calf intestine
Procedure: (1) Alkaline Phosphatase: 1 mg BEBTP was dissolved in 10 ml AttoPhos buffer (JBL Scientific, San Luis Obispo, Calif.). A small quantity of alkaline phosphatase (Calf Intestine, Calzyme, San Luis Obispo, Calif.) was added.

[8] = system: Lipase from Pseudomonas species; experiment: Lipase activity towards BBT acyl derivatives; format: biochemical; settings: 100 mM Tris HCl pH 8.0; Ex 440 nm, Em 550 nm; FIG. 5; text says 'lipases'
Procedure: (3) Esterase and Lipase: Buffer: 100 mM Tris. HCl, pH 8.0. Substrate Stock Solution: 2 mM acyl BBT dioxane solution. Enzymes: All enzymes were from Sigma: Esterase from Porcine Liver(E3 128); Lipase from Pseudomonas species ([…]); Lipase from Candida cylindracea ([…]). Dilute the enzyme by the buffer to the desired concentration before use. Instrument: Squoia-Tumer Fluorometer, Model 450. Excitation at 440 nm and Emission at 550 nm. Procedure: 1. Set the Fluorometer Gain to 200. 2. Set the Fluorometer Zero to 0 with the Tris buffer. 3. Set the Fluorometer Span to 1000 using JBL 10 ng BBT (FEY) standard solution. 4. Pipette 980 μl buffer to a glass test tube (Baxter, Cat. No. T1290-3). 5. Add 10 μl substrate stock solution and mix well. 6. Measure and record the blank reading. 7. Add 10 μl enzyme solution. 8. Take fluorescence reading every one minute for 3 minutes and record. 9. Calculate the fluorescence unit change (FU/min) by subtracting the first-minute reading from the second-minute reading. 10. Plot FU/min vs. enzyme concentration, u/L (FIG. 4 and FIG. 5).

[9] = system: Esterase from Porcine Liver; experiment: Esterase activity towards BBT acyl derivatives; format: biochemical; settings: 100 mM Tris HCl pH 8.0; Ex 440 nm, Em 550 nm; FIG. 4
Procedure: Buffer: 100 mM Tris. HCl, pH 8.0.
Substrate Stock Solution: 2 mM acyl BBT dioxane solution.
Enzymes: All enzymes were from Sigma: Esterase from Porcine Liver(E3 128); Lipase from Pseudomonas species (L9518); Lipase from Candida cylindracea (L1754). Dilute the enzyme by the buffer to the desired concentration before use.
Instrument: Squoia-Tumer Fluorometer, Model 450. Excitation at 440 nm and Emission at 550 nm.
1. Set the Fluorometer Gain to 200.
2. Set the Fluorometer Zero to 0 with the Tris buffer.
3. Set the Fluorometer Span to 1000 using JBL 10 ng BBT (FEY) standard solution.
4. Pipette 980 μl buffer to a glass test tube (Baxter, Cat. No. T1290-3).
5. Add 10 μl substrate stock solution and mix well.
6. Measure and record the blank reading.
7. Add 10 μl enzyme solution.
8. Take fluorescence reading every one minute for 3 minutes and record.
9. Calculate the fluorescence unit change (FU/min) by subtracting the first-minute reading from the second-minute reading.
10. Plot FU/min vs. enzyme concentration, u/L (FIG. 4 and FIG. 5).

[10] = aqueous; cited from earlier work
[11] = Fluorescence of labeled oligonucleotide on DNA electrophoresis gel; settings: versus non-labeled oligonucleotide
Description: (4) Fluorescence: The labeled BBTE-[…] (SEQ ID NO: 1) was separated on a standard DNA electrophoresis gel, along with the non-labeled […] (SEQ ID NO: 1).

T1 sequence (P00722 2-1024): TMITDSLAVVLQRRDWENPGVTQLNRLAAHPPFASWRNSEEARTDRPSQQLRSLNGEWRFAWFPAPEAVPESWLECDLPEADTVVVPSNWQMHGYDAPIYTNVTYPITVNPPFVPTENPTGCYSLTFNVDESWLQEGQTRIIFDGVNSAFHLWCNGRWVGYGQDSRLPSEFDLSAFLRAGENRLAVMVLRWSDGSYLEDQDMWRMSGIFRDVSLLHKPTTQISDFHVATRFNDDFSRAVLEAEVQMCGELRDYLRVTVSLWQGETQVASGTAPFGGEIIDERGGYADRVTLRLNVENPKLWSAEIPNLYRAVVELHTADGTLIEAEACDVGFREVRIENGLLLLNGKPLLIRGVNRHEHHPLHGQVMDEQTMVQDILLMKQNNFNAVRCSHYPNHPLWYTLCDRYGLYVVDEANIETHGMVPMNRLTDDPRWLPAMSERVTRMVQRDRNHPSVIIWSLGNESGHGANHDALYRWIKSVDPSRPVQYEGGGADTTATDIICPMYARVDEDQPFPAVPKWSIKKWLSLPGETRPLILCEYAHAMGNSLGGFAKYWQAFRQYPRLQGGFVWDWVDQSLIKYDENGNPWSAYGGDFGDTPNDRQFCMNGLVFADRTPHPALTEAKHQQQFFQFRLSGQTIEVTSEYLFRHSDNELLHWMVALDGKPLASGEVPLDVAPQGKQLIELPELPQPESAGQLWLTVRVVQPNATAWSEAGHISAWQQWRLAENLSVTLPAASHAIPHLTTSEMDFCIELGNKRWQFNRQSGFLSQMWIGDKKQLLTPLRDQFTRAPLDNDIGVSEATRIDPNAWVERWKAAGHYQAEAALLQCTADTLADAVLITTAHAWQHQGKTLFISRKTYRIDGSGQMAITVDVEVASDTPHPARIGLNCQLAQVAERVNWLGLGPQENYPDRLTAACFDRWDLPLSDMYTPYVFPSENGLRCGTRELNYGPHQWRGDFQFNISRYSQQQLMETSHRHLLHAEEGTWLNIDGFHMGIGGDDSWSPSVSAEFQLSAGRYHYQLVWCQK
T2 sequence (P19111 20-506 limits assumed): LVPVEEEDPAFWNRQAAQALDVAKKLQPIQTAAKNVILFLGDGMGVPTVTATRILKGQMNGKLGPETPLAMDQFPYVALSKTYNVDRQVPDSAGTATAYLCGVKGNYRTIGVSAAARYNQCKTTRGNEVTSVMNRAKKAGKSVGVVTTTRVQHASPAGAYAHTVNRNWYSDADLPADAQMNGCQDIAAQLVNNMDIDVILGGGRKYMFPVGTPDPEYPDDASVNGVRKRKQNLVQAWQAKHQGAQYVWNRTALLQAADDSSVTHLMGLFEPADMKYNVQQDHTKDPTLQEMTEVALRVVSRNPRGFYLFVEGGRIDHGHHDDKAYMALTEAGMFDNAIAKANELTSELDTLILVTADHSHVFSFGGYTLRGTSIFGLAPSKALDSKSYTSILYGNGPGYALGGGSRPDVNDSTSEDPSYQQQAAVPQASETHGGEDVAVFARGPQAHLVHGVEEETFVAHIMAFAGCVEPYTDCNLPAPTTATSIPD

pH at which the compound fully fluoresces [2]: 9-10 pH
Compound: Oc1ccc2nc(-c3nc4ccccc4s3)sc2c1 [BBT, 2'-(2-Benzothiazolyl)-6'-hydroxy-benzothiazole]
pKa [3]: 8.5
ionization state (fluorescence) ([4]; pH 10.3 (ALP assay)): fully ionized
ionization state (fluorescence) ([4]; pH range of 6.0 to 8.0): only partially ionized
Stokes Shift [1]: 142 nm
λEM (wavelength of maximum emission) [1]: 561 nm
λEX (wavelength of maximum excitation) [1]: 419 nm

EM ([5]; Table 1): 549 nm
EX ([5]; Table 1): 430 nm
Stokes Shift ([5]; Table 1): 119 nm
Compound: O=C(O)Cc1ccc2nc(-c3nc4ccc(O)cc4s3)sc2c1 [BBTAA, 2'-(6-Hydroxybenzothiazol-2-yl)-benzothiazole-6'-acetic acid]

EM ([5]; Table 1): 548 nm
EX ([5]; Table 1): 430 nm
Stokes Shift ([5]; Table 1): 118 nm
Compound: O=C(Cc1ccc2nc(-c3nc4ccc(O)cc4s3)sc2c1)NCCS(=O)(=O)O [BBTAAT]

EM ([5]; Table 1): 550 nm
EX ([5]; Table 1): 422 nm
Stokes Shift ([5]; Table 1): 128 nm
Compound: OCCc1ccc2nc(-c3nc4ccc(O)cc4s3)sc2c1 [BBTE]

pH at which maximum fluorescence is reached ([2]; FIG. 3): 7-8 pH
EM ([5]; Table 1): 550 nm
EX ([5]; Table 1): 435 nm
Stokes Shift ([5]; Table 1): 115 nm
Compound: Oc1ccc2nc(-c3nc4ccccc4s3)sc2c1Cl [CIBBT, 2'-(Benzothiazol-2-yl)-7'-chloro-6'-hydroxybenzothiazole]

EM ([5]; Table 1): 545 nm
EX ([5]; Table 1): 437 nm
Stokes Shift ([5]; Table 1): 108 nm
Compound: O=C(O)Cc1ccc2nc(-c3nc4ccc(O)c(Cl)c4s3)sc2c1 [CIBBTAA, 2'-(7-Chloro-6-hydroxybenzothiazol-2-yl)-benzothiazole-6'-acetic acid]

EM ([5]; Table 1): 552 nm
EX ([5]; Table 1): 423 nm
Stokes Shift ([5]; Table 1): 129 nm
Compound: Oc1ccc2nc(-c3nc4ccccc4s3)sc2c1F [FBBT, 2'-(2-Benzothiazolyl)-7'-fluoro-6'-hydroxybenzothiazole]

substrate activity for lipases [8]: very poor substrate
substrate activity for porcine liver esterase [9]: very effective substrate
Compound: CCC(=O)Oc1ccc2nc(-c3nc4ccccc4s3)sc2c1 [Propionyl BBT, 2'-(2-Benzothiazolyl)-6'-hydroxybenzothiazole Propionate]

EM ([5]; Table 1): 538 nm
EX ([5]; Table 1): 420 nm
Stokes Shift ([5]; Table 1): 118 nm
Compound: O=S(=O)(O)c1c(O)ccc2nc(-c3nc4ccccc4s3)sc12 [SBBT]

The remaining lines, values behind:

Compound: Oc1ccc2nc(-c3ccccc3)oc2c1 [2-Phenyl-6-hydroxybenzoxazole]
Stokes Shift [1]: 110 nm
λEM (wavelength of maximum emission) [1]: 460 nm
λEX (wavelength of maximum excitation) [1]: 370 nm

Compound: Cc1cc(=O)oc2cc(O)ccc12 [4-Methylumbelliferone]
Stokes Shift [1]: 82 nm
λEM (wavelength of maximum emission) [1]: 449 nm
λEX (wavelength of maximum excitation) [1]: 367 nm

Compound: Oc1ccc2nc(/C=C/c3nc4ccccc4o3)sc2c1 [BEBO, 2'-(2-benzoxazolylethenyl)-6'-hydroxybenzothiazole]
EM ([5]; Table 2): 604 nm
EX ([5]; Table 2): 438 nm
Stokes Shift ([5]; Table 2): 166 nm

Compound: Oc1ccc2nc(/C=C/c3nc4ccccc4s3)sc2c1 [BEBT, 2'-(2-benzothiazolylethenyl)-6'-hydroxybenzothiazole]
EM ([5]; Table 2): 620 nm
EX ([5]; Table 2): 440 nm
Stokes Shift ([5]; Table 2): 180 nm

Compound: O=S(=O)(O)CCc1ccc2nc(/C=C/c3nc4ccc(O[C@@H]5O[C@H](CO)[C@H](O)[C@H](O)[C@H]5O)cc4s3)sc2c1 [BEBTESG, 2'-((6-Sulfoethyl-2-benzothiazolyl)ethenyl)-6'-hydroxybenzothiazole β-D-Galactoside]
fluorescence on hydrolysis by β-galactosidase [6]: orange red fluorescence was quickly developed

Compound: O=P(O)(O)Oc1ccc2nc(/C=C/c3nc4ccccc4s3)sc2c1 [BEBTP, 2'-(2-Benzothiazolylethenyl)-6'-hydroxybenzothiazole phosphate di(2-amino-2-methyl 1,3-propanediol) salt]
fluorescence on hydrolysis by alkaline phosphatase [7]: orange red fluorescence was quickly developed

Compound: CCN1C(=CC=Cc2oc3ccccc3[n+]2CCCCCC(=O)[O-])Oc2ccccc21 [Cy2]
Stokes Shift [1]: 18 nm
λEM (wavelength of maximum emission) [1]: 506 nm
λEX (wavelength of maximum excitation) [1]: 489 nm

Compound: O=C1OC2(c3ccc(O)cc3Oc3cc(O)ccc32)c2ccccc21 [Fluorescein]
Stokes Shift [1]: 28 nm
λEM (wavelength of maximum emission) [1]: 520 nm
λEX (wavelength of maximum excitation) [1]: 492 nm

Compound: CCN(CC)c1ccc2c(-c3ccccc3C(=O)O)c3ccc(=[N+](CC)CC)cc-3oc2c1 [Rhodamine]
Stokes Shift [1]: 35 nm
λEM (wavelength of maximum emission) [1]: 575 nm
λEX (wavelength of maximum excitation) [1]: 540 nm

Compound: OC[C@H]1O[C@@H](Oc2ccc3nc(-c4nc5ccccc5s4)sc3c2)[C@H](O)[C@@H](O)[C@H]1O [galactoside of BBT]
solubility [10]: less than 1 mM

Compound: CCCCCCCC/C=C\CCCCCCCC(=O)Oc1ccc2nc(-c3nc4ccccc4s3)sc2c1 [oleoyl BBT, 2'-(2-Benzothiazolyl)-6'-hydroxybenzothiazole Oleate]
substrate activity for lipases [8]: high activity
substrate activity for porcine liver esterase [9]: low activity

Compound: Oc1ccc2nc(/C=C/c3nc4c(ccc5ccccc54)o3)sc2c1 [α-BENO]
EM ([5]; Table 2): 585 nm
EX ([5]; Table 2): 432 nm
Stokes Shift ([5]; Table 2): 153 nm

Compound: Oc1ccc2nc(/C=C/c3nc4c(ccc5ccccc54)s3)sc2c1 [α-BENT]
EM ([5]; Table 2): 624 nm
EX ([5]; Table 2): 443 nm
Stokes Shift ([5]; Table 2): 181 nm

Compound: Oc1ccc2nc(/C=C/c3nc4ccc5ccccc5c4o3)sc2c1 [β-BENO]
EM ([5]; Table 2): 602 nm
EX ([5]; Table 2): 443 nm
Stokes Shift ([5]; Table 2): 159 nm

Compound: BBTE-TCTCCCAGCGTGCGCCAT: oligonucleotide (SEQ ID NO: 1) labeled at the 5'-end with the BBTE phosphoramidite (5' {BBTE}, sugars by position and backbone not given here)
fluorescence on DNA electrophoresis gel [11]: strong yellow fluorescent band
